Where “and” joins values, the source holds several entries; their conditions need not be identical. Equal entries are not always repeated.
How the values were obtained:
Assay in all cases: drug sensitivity score (DSS), CellTiter-Blue viability (DSS (AUC-based score)); higher = stronger viability inhibition; extreme values may be limits of the assay
Conditions in all cases: incubation time: 72 h
[1] = system: BT-549
Method in brief: (§1)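 Cells from breast cancer lines were grown with compound for 72 h in 384-well plates, using a 5- or 9-concentration series. CellTiter-Blue fluorescence (560/590 nm) served as the viability readout, normalised plate by plate to 0.1 % DMSO and a positive kill control. A drug sensitivity score was computed as the area under the fitted dose-response curve.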

[2] = system: CAL-148
Method in brief: as §1

[3] = system: CAL-51
Method in brief: as §1

[4] = system: HCC1143
Method in brief: as §1

[5] = system: CAL-120
Method in brief: as §1

[6] = system: Hs578T
Method in brief: as §1

[7] = system: MFM-223
Method in brief: as §1

[8] = system: MDA-MB-468
Method in brief: as §1

[9] = system: HCC1937
Method in brief: as §1

SMILES | drug sensitivity score [1] | drug sensitivity score [2] | drug sensitivity score [3] | drug sensitivity score [4] | drug sensitivity score [5] | drug sensitivity score [6] | drug sensitivity score [7] | drug sensitivity score [8] | drug sensitivity score [9]
CS(=O)(=O)N1CCN(Cc2cc3nc(-c4cccc5[nH]ncc45)nc(N4CCOCC4)c3s2)CC1 [GDC-0941] | 9.12 | 11.3 | 13.9 | 9.14 | 10.5 | 8.67 | 12.7 | 8.93 | 8.92
CC[C@@]1(O)C(=O)OCc2c1cc1n(c2=O)Cc2cc3c(CN(C)C)c(O)ccc3nc2-1 [Topotecan] | 4.7 | 11.5 | 5.2 | 5.56 | 8.72 | 0 | 0 | 11.6 | 13.2
Cc1cccc(-c2nn3c(c2-c2ccnc4ccc(C(N)=O)cc24)CCC3)n1 | 0 | 0 | 0 | 0 | 0 | 0 | 0 | 0 | 0
COc1nc(N)nc2c1ncn2[C@@H]1O[C@H](CO)[C@@H](O)[C@@H]1O [Nelarabine] | 0 | 0 | 0 | 0 | 0 | 0 | 0 | 0 | 0
Nc1cccc2c1CN(C1CCC(=O)NC1=O)C2=O (stereo not drawn) [Lenalidomide] | 0 | 0 | 0 | 0 | 0 | 0 | 0 | 0 | 0
O=C1c2c(O)ccc(O)c2C(=O)c2c(NCCNCCO)ccc(NCCNCCO)c21 [Mitoxantrone] | 4.76 | 17.4 | 17.6 | 6.5 | 9.16 | 4.05 | 2.58 | 9.75 | 23.1
Nc1ccccc1NC(=O)c1ccc(CNc2nccc(-c3cccnc3)n2)cc1 [Mocetinostat] | 7.6 | 8.31 | 5.94 | 6.77 | 13.4 | 6.43 | 3.47 | 7.64 | 7.41
C[C@]12C=CC(=O)C=C1CC[C@@H]1[C@@H]2[C@@H](O)C[C@@]2(C)[C@H]1CC[C@]2(O)C(=O)CO [Prednisolone] | 0 | 0 | 0 | 0 | 0 | 0 | 0 | 0 | 0
Nc1nc(=O)c2c([nH]1)NCC(CNc1ccc(C(=O)N[C@@H](CCC(=O)O)C(=O)O)cc1)N2C=O (mixture of isomers) [Folinic acid] | 0 | 0 | 0 | 0 | 0 | 0 | 0 | 0 | 0
O=C(NC[C@H](O)CO)c1ccncc1Nc1ccc(I)cc1F | 0 | 3.49 | 3.9 | 13.8 | 7.78 | 0 | 0 | 0 | 0
C[C@]12O[C@H](C[C@]1(O)CO)n1c3ccccc3c3c4c(c5c6ccccc6n2c5c31)CNC4=O [Lestaurtinib] | 1.24 | 0 | 2.4 | 3.46 | 7.43 | 0 | 5.87 | 0 | 7.15
CO[C@@H](C(=O)N1Cc2[nH]nc(NC(=O)c3ccc(N4CCN(C)CC4)cc3)c2C1)c1ccccc1 [Danusertib] | 9.37 | 13.2 | 13.4 | 8.76 | 10.5 | 11.3 | 0 | 15.5 | 10.8
CCC/C=C/C=C/C(=O)O[C@H]1/C(=C/C(=O)OC)C[C@H]2C[C@H]([C@@H](C)O)OC(=O)C[C@H](O)C[C@@H]3C[C@H](OC(C)=O)C(C)(C)[C@](O)(C[C@@H]4C/C(=C/C(=O)OC)C[C@H](/C=C/C(C)(C)[C@]1(O)O2)O4)O3 [Bryostatin 1] | 0 | 16.1 | 0 | 6.66 | 0 | 0 | 0 | 0 | 0
COc1ccc(-c2cc3c(C)nc(N)nc3n([C@H]3CC[C@H](OCCO)CC3)c2=O)cn1 | 19.1 | 18.3 | 21.2 | 13.8 | 17.7 | 20.1 | 19.1 | 17.2 | 18.2
Cc1nc(Nc2ncc(C(=O)Nc3c(C)cccc3Cl)s2)cc(N2CCN(CCO)CC2)n1 [Dasatinib] | 8.07 and 9.99 | 0 | 12.4 and 11.1 | 6.83 and 7.93 | 11.2 and 13.7 | 10.6 and 12.3 | 2.5 and 1.76 | 0 | 0
O=S(=O)(c1cccc2cnccc12)N1CCCNCC1 [Fasudil] | 0 | 0 | 0 | 0 | 0 | 0 | 1.41 | 0 | 0
CCN(CC)CCNC(=O)c1c(C)[nH]c(/C=C2\C(=O)Nc3ccc(F)cc32)c1C [Sunitinib] | 0 | 0 | 0 | 0 | 0 | 0 | 0 | 0 | 0
